Data taken from patent US9802921B2, “Fluoromethyl-substituted pyrrole carboxamides iv” (Grünenthal GmbH, priority 2013, dated 2017).

Biological target: T1, Human CaV2.2 channels (Homo sapiens, UniProt Q00975)
T1 construct: expressed in transfected cells
Assay: Fluorescent assay for CaV2.2 channels using potassium depolarization to induce channel opening (FLIPR, Fluo 4)
Assay type: cell-based
Details: read-out: Activity Category: %-Inhib (CaV2.2) @3 μM @30 mM KCl; 3 μM test compound; 30 mM KCl as printed; HEK293 cells stably expressing human CaV2.2
Excerpt: In the process, the Ca^2+ influx is quantified in the FLIPR assay with the aid of a Ca^2+-sensitive dye (type Fluo-4, Molecular Probes Europe BV, Leiden, the Netherlands) in a fluorescent imaging plate reader (FLIPR 3, Molecular Devices, Sunnyvale, USA), as described hereinafter.
Human CaV2.2 channels were stably expressed in HEK293 cells together with alpha2-delta and beta subunits of voltage gated calcium channels. In addition, an inwardly rectifying potassium channel (Kir2.3) was stably expressed in these cells to augment control of the cell membrane potential by the concentration of extracellular potassium ions. Raise of the extracellular potassium concentration leads to depolarization of the membrane potential and thus regulates the voltage dependent state of CaV2.2 channels. For preparation, cells were seeded in black poly-D-lysine coated 96-well plates (Becton Dickinson, Biocoat 4640) in 100 μL medium [500 mL DMEM/F-12 plus Glutamax (Invitrogen 31331-093) plus 5.5 mL MEM NEAA 100× (Invitrogen 11140-035) plus 50 mL FBS decomplemented (Invitrogen 10270-106) plus 200 μg/mL Geneticin (Invitrogen 10131-027) plus 50 μg/mL Hygromycin B (Invitrogen 10687-010) plus 2 μg/mL Blasticidin (anti-bl5b Invivo-Gen) plus 0.2 μg/mL Puromycin (A 11138-03)] at a cell density of 30.000 cells per well. Plates were incubated at 37° C. (5% CO2) for 20 to 23 h. On the day of experiment medium was discarded and cells were loaded with Fluo 4 by addition of 100 μL of basic assay buffer (10 mM HEPES, 1 mM KCl, 149 mM NaCl, 0.8 mM CaCl2, 1.7 mM MgCl2, 10 mM Glucose, 0.1% BSA. pH 7.4) containing 2 μM Fluo 4 (Molecular Probes; F-14201), 0.01% pluronic acid (Molecular Probes; P-6866) and 2.5 mM probenecid (Molecular Probes; P36400). Cells were incubated in the dark at 25° C. for 60 min. Then dye containing buffer was discarded and 100 μL basic (1 mM KCl) or alternative (30 mM KCl) assay buffer was added. The alternative assay buffer contained altered concentrations of KCl (30 mM) and NaCl (120 mM) and was used in order to promote the inactivated channel state. After that 25 μL of basic or alternative assay buffer with or without test compound were added and cells were incubated again in the dark at 25° C. for 15 min. Fluorescence intensity was measured on a FLIPR 3 instrument (Molecular Devices Corp., Sunnyvale, Calif.) with excitation at 480 nm and emission at 535 nm. After continuously reading fluorescence for 30 sec, 50 μL of basic assay buffer containing 210 mM KCl (NaCl omitted) were added for depolarization. Peak fluorescent signal intensity was determined and the amplitude of the peak signal, normalized to base line, was used to measure channel inhibition by test compounds.

T1 sequence (Q00975 whole entry): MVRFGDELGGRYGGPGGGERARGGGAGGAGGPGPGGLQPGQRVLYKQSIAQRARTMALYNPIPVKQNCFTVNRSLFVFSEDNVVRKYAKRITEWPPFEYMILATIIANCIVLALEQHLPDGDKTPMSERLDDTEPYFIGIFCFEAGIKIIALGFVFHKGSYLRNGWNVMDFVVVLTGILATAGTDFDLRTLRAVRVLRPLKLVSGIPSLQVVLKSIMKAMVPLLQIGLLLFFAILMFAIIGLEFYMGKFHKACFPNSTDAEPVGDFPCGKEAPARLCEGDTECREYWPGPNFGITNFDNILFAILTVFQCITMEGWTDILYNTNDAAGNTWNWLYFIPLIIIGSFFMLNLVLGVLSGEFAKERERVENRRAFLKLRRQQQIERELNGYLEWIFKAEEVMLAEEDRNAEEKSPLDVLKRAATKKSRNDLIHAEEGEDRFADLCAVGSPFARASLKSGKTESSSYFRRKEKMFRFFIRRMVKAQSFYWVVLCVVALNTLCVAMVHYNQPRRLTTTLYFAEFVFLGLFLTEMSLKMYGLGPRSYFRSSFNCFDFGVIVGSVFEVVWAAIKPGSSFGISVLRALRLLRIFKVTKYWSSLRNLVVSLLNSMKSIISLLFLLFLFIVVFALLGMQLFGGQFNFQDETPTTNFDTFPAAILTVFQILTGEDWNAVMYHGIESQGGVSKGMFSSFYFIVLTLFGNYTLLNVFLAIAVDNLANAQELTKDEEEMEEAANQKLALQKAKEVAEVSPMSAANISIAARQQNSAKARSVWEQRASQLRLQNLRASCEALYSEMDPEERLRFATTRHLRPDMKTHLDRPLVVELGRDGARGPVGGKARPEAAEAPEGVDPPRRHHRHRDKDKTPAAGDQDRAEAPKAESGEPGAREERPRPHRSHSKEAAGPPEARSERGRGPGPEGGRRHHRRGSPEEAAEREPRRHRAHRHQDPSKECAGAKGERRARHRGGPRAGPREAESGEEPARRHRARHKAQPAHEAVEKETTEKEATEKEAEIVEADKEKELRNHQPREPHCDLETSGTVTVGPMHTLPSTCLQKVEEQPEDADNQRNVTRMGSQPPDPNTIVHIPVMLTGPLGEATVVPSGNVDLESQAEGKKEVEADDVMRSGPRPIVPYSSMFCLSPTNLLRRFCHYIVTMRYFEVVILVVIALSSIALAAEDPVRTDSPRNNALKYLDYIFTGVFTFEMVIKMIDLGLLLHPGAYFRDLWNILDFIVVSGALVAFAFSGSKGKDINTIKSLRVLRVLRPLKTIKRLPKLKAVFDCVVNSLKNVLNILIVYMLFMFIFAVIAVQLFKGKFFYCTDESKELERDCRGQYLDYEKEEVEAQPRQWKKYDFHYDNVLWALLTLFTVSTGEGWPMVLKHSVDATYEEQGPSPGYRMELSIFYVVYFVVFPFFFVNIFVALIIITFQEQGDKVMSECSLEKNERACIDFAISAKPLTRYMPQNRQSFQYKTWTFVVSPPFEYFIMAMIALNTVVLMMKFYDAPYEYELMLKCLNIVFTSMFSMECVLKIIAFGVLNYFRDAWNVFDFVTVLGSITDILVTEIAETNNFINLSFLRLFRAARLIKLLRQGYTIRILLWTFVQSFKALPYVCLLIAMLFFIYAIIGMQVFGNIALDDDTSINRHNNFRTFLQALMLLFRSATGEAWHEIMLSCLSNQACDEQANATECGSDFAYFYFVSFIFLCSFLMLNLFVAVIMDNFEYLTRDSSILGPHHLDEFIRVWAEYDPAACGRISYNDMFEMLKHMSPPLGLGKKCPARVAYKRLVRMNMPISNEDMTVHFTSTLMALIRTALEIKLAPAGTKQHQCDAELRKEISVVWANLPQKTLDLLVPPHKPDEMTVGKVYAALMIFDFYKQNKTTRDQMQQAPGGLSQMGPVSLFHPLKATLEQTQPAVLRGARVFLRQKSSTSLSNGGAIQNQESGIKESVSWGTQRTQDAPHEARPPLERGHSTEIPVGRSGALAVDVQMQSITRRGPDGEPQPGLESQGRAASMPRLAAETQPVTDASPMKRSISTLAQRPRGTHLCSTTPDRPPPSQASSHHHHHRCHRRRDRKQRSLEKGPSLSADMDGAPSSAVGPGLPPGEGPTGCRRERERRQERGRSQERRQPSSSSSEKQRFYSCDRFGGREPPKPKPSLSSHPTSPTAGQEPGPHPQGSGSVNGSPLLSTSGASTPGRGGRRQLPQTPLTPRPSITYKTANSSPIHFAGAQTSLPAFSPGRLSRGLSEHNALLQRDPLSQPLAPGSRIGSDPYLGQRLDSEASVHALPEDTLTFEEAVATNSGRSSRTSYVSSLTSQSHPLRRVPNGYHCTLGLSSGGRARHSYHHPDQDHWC
T1 sequence (P54289 25-1103, further chain): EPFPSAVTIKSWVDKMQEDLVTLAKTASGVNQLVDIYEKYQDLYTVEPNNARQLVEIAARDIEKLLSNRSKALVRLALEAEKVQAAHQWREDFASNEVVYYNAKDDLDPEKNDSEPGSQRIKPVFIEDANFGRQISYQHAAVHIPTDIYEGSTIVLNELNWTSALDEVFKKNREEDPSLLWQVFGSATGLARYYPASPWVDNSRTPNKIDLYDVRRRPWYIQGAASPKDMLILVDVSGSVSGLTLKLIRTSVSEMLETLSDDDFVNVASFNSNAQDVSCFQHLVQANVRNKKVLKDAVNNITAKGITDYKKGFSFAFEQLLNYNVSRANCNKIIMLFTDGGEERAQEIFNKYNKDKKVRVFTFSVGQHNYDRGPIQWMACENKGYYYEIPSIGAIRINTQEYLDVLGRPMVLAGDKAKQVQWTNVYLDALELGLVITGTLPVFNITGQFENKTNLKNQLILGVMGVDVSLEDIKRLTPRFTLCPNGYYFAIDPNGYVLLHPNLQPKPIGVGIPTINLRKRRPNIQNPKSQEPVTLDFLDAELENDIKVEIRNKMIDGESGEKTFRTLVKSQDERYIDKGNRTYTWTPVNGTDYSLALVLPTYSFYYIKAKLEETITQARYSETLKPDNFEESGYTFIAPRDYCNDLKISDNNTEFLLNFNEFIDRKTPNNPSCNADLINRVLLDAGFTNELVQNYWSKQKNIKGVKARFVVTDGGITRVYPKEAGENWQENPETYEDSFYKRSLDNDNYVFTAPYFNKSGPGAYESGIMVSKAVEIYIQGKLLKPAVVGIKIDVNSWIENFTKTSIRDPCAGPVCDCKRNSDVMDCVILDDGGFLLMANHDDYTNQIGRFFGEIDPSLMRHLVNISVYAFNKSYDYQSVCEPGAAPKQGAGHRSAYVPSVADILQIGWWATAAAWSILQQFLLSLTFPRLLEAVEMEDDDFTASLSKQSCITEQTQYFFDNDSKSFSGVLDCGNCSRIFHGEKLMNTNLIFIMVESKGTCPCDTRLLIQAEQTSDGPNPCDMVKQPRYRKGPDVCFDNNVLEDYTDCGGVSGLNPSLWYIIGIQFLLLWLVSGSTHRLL
T1 sequence (P54284 whole entry, further chain): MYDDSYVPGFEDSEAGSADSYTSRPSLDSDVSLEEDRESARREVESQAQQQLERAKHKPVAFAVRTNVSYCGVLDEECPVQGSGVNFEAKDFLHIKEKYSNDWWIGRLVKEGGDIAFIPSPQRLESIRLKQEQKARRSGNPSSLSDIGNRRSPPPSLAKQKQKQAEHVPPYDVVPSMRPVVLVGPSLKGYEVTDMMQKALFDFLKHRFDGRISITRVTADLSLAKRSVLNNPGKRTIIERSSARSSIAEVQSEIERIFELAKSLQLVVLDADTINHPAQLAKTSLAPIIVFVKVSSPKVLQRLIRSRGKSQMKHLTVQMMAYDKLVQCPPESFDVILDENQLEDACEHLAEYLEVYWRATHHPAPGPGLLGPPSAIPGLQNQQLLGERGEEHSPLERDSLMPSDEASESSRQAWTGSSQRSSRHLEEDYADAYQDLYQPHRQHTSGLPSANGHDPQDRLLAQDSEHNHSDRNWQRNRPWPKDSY

For `CCc1cc(Cn2c(C(=O)N(C)CCS(C)(=O)=O)c(-c3ccc(Cl)cc3)c(C)c2C(F)(F)F)on1` [Example 001, 3-(4-Chlorophenyl)-1-[(3-ethyl-isoxazol-5-yl)-methyl]-N,4-dimethyl-N-(2-methylsulfonyl-ethyl)-5-(trifluoromethyl)-1H-pyrrole-2-carboxylic acid amide], which inhibition at 3 µM is on record?
The inhibition at 3 µM was over 95%.

How did the inhibition at 3 µM turn out when `Cc1c(-c2ccc(Cl)cc2)c(C(=O)N(C)CCS(C)(=O)=O)n(Cc2nccn2C)c1C(F)(F)F` [Example 002, 3-(4-Chlorophenyl)-N,4-dimethyl-1-[(1-methyl-1H-imidazole-2-yl)-methyl]-N-(2-methylsulfonyl-ethyl)-5-(trifluoromethyl)-1H-pyrrole-2-carboxylic acid amide] was run?
The inhibition at 3 µM was 40 to 75%.

`Cc1c(-c2ccc(Cl)cc2)c(C(=O)N(C)CCS(C)(=O)=O)n(Cc2cncn2C)c1C(F)(F)F` [Example 003, 3-(4-Chlorophenyl)-N,4-dimethyl-1-[(3-methyl-3H-imidazole-4-yl)-methyl]-N-(2-methylsulfonyl-ethyl)-5-(trifluoromethyl)-1H-pyrrole-2-carboxylic acid amide] was tested. Which inhibition at 3 µM did it give?
The inhibition at 3 µM was 40 to 75%.

How did the inhibition at 3 µM turn out when `CN(CC(C)(C)C)C(=O)c1c(-c2ccc(Cl)cc2)cc(C(F)(F)F)n1Cc1ccnn1C` [Example 008, 3-(4-Chlorophenyl)-N-(2,2-dimethyl-propyl)-N-methyl-1-[(2-methyl-2H-pyrazol-3-yl)-methyl]-5-(trifluoromethyl)-1H-pyrrole-2-carboxylic acid amide] was run?
Its inhibition at 3 µM is 75 to 95%.

Which inhibition at 3 µM does the source give for `CN(CC(C)(C)C)C(=O)c1c(-c2ccc(Cl)cc2)cc(C(F)(F)F)n1Cc1cn(C)nn1` [Example 009, 3-(4-Chlorophenyl)-N-(2,2-dimethyl-propyl)-N-methyl-1-[(1-methyl-1H-[1,2,3]triazol-4-yl)-methyl]-5-(trifluoromethyl)-1H-pyrrole-2-carboxylic acid amide] here?
Its inhibition at 3 µM is 75 to 95%.

Which inhibition at 3 µM does the source give for `CN(CC(C)(C)C)C(=O)c1c(-c2ccc(Cl)cc2)cc(C(F)(F)F)n1Cc1nc(C(F)(F)F)no1` [Example 010, 3-(4-Chlorophenyl)-N-(2,2-dimethyl-propyl)-N-methyl-5-(trifluoromethyl)-1-[[3-(trifluoromethyl)-[1,2,4]oxadiazol-5-yl]-methyl]-1H-pyrrole-2-carboxylic acid amide] here?
The inhibition at 3 µM was 75 to 95%.

Which inhibition at 3 µM does the source give for `Cc1noc(Cn2c(C(F)(F)F)cc(-c3ccc(Cl)cc3)c2C(=O)N(C)CC(C)(C)C)n1` [Example 011, 3-(4-Chlorophenyl)-N-(2,2-dimethyl-propyl)-N-methyl-1-[(3-methyl-[1,2,4]oxadiazol-5-yl)-methyl]-5-(trifluoromethyl)-1H-pyrrole-2-carboxylic acid amide] here?
Its inhibition at 3 µM is over 95%.

With `Cc1nc(Cn2c(C(F)(F)F)cc(-c3ccc(Cl)cc3)c2C(=O)N(C)CC(C)(C)C)no1` [Example 012, 3-(4-Chlorophenyl)-N-(2,2-dimethyl-propyl)-N-methyl-1-[(5-methyl-[1,2,4]oxadiazol-3-yl)-methyl]-5-(trifluoromethyl)-1H-pyrrole-2-carboxylic acid amide] as the molecule, how does the inhibition at 3 µM read?
The inhibition at 3 µM was over 95%.

Which inhibition at 3 µM does the source give for `CN(CC(C)(C)C)C(=O)c1c(-c2ccc(Cl)cc2)cc(C(F)(F)F)n1Cc1ncn(C)n1` [Example 013, 3-(4-Chlorophenyl)-N-(2,2-dimethyl-propyl)-N-methyl-1-[(1-methyl-1H-[1,2,4]triazol-3-yl)-methyl]-5-(trifluoromethyl)-1H-pyrrole-2-carboxylic acid amide] here?
Its inhibition at 3 µM is 75 to 95%.

How did the inhibition at 3 µM turn out when `Cc1nnc(Cn2c(C(F)(F)F)cc(-c3ccc(Cl)cc3)c2C(=O)N(C)CC(C)(C)C)o1` [Example 014, 3-(4-Chlorophenyl)-N-(2,2-dimethyl-propyl)-N-methyl-1-[(5-methyl-[1,3,4]oxadiazol-2-yl)-methyl]-5-(trifluoromethyl)-1H-pyrrole-2-carboxylic acid amide] was run?
Its inhibition at 3 µM is 75 to 95%.

How did the inhibition at 3 µM turn out when `Cc1noc(Cn2c(C(=O)N(C)CCS(C)(=O)=O)c(-c3ccc(Cl)cc3)c(C)c2C(F)(F)F)n1` [Example 015, 3-(4-Chlorophenyl)-N,4-dimethyl-1-[(3-methyl-[1,2,4]oxadiazol-5-yl)-methyl]-N-(2-methylsulfonyl-ethyl)-5-(trifluoromethyl)-1H-pyrrole-2-carboxylic acid amide] was run?
The inhibition at 3 µM was 75 to 95%.

With `Cc1c(-c2ccc(Cl)cc2)c(C(=O)N2CCOCC2)n(Cc2ccnn2C)c1C(F)(F)F` [Example 016, [3-(4-Chlorophenyl)-4-methyl-1-[(2-methyl-2H-pyrazol-3-yl)-methyl]-5-(trifluoromethyl)-1H-pyrrol-2-yl]-morpholin-4-yl-methanone] as the molecule, how does the inhibition at 3 µM read?
The inhibition at 3 µM was 75 to 95%.

With `Cc1c(-c2ccc(Cl)cc2)c(C(=O)N2CCOCC2)n(Cc2cn(C)nn2)c1C(F)(F)F` [Example 017, [3-(4-Chlorophenyl)-4-methyl-1-[(1-methyl-1H-[1,2,3]triazol-4-yl)-methyl]-5-(trifluoromethyl)-1H-pyrrol-2-yl]-morpholin-4-yl-methanone] as the molecule, how does the inhibition at 3 µM read?
Its inhibition at 3 µM is 40 to 75%.

How did the inhibition at 3 µM turn out when `Cc1noc(Cn2c(C(=O)N3CCOCC3)c(-c3ccc(Cl)cc3)c(C)c2C(F)(F)F)n1` [Example 018, [3-(4-Chlorophenyl)-4-methyl-1-[(3-methyl-[1,2,4]oxadiazol-5-yl)-methyl]-5-(trifluoromethyl)-1H-pyrrol-2-yl]-morpholin-4-yl-methanone] was run?
The inhibition at 3 µM was over 95%.

How did the inhibition at 3 µM turn out when `Cc1c(-c2ccc(Cl)cc2)c(C(=O)N2CCOCC2)n(Cc2ncn(C)n2)c1C(F)(F)F` [Example 019, [3-(4-Chlorophenyl)-4-methyl-1-[(1-methyl-1H-[1,2,4]triazol-3-yl)-methyl]-5-(trifluoromethyl)-1H-pyrrol-2-yl]-morpholin-4-yl-methanone] was run?
Its inhibition at 3 µM is 75 to 95%.

Which inhibition at 3 µM does the source give for `Cc1c(-c2ccc(Cl)cc2)c(C(=O)N2CCS(=O)(=O)CC2)n(Cc2cn(C)cn2)c1C(F)(F)F` [Example 022, [3-(4-Chlorophenyl)-4-methyl-1-[(1-methyl-1H-imidazol-4-yl)-methyl]-5-(trifluoromethyl)-1H-pyrrol-2-yl]-(1,1-dioxo-[1,4]thiazinan-4-yl)-methanone] here?
The inhibition at 3 µM was 40 to 75%.

Which inhibition at 3 µM does the source give for `Cc1c(-c2ccc(Cl)cc2)c(C(=O)N2CCOCC2)n(Cc2cnn(C)c2)c1C(F)(F)F` [Example 023, [3-(4-Chlorophenyl)-4-methyl-1-[(1-methyl-1H-pyrazol-4-yl)-methyl]-5-(trifluoromethyl)-1H-pyrrol-2-yl]-morpholin-4-yl-methanone] here?
Its inhibition at 3 µM is over 95%.

For `Cc1c(-c2ccc(Cl)cc2)c(C(=O)N2CCOCC2)n(Cc2nncs2)c1C(F)(F)F` [Example 024, [3-(4-Chlorophenyl)-4-methyl-1-([1,3,4]thiadiazol-2-yl-methyl)-5-(trifluoromethyl)-1H-pyrrol-2-yl]-morpholin-4-yl-methanone], which inhibition at 3 µM is on record?
The inhibition at 3 µM was 40 to 75%.

How did the inhibition at 3 µM turn out when `CN(CC(C)(C)C)C(=O)c1c(-c2ccc(Cl)cc2)cc(C(F)(F)F)n1Cc1nccn1C` [Example 025, 3-(4-Chlorophenyl)-N-(2,2-dimethyl-propyl)-N-methyl-1-[(1-methyl-1H-imidazole-2-yl)-methyl]-5-(trifluoromethyl)-1H-pyrrole-2-carboxylic acid amide] was run?
The inhibition at 3 µM was 75 to 95%.

How did the inhibition at 3 µM turn out when `CN(CC(C)(C)C)C(=O)c1c(-c2ccc(Cl)cc2)cc(C(F)(F)F)n1Cc1cncn1C` [Example 026, 3-(4-Chlorophenyl)-N-(2,2-dimethyl-propyl)-N-methyl-1-[(3-methyl-3H-imidazole-4-yl)-methyl]-5-(trifluoromethyl)-1H-pyrrole-2-carboxylic acid amide] was run?
Its inhibition at 3 µM is 75 to 95%.

Which inhibition at 3 µM does the source give for `CN(CC(C)(C)C)C(=O)c1c(-c2ccc(Cl)cc2)cc(C(F)(F)F)n1Cc1nncn1C` [Example 027, 3-(4-Chlorophenyl)-N-(2,2-dimethyl-propyl)-N-methyl-1-[(4-methyl-4H-[1,2,4]triazol-3-yl)-methyl]-5-(trifluoromethyl)-1H-pyrrole-2-carboxylic acid amide] here?
Its inhibition at 3 µM is 40 to 75%.

Which inhibition at 3 µM does the source give for `Cc1c(-c2ccc(Cl)cc2)c(C(=O)N2CCOCC2)n(Cc2cncc(Cl)c2)c1C(F)(F)F` [Example 028, [3-(4-Chlorophenyl)-1-[(5-chloro-pyridin-3-yl)-methyl]-4-methyl-5-(trifluoromethyl)-1H-pyrrol-2-yl]-morpholin-4-yl-methanone] here?
The inhibition at 3 µM was over 95%.
